Source: patent publication US5240961A, “Method of treating reduced insulin-like growth factor and bone loss associated with aging” (priority 1992, dated 1993)
Several values for one entry are separate records, joined by “and”; a condition that tells them apart may be missing. Equal entries are not always repeated. Where two headings read alike, the source gives them in different places.

What was measured:
[1] = test system: bone mineral content of thoracic vertebrae; assay: Bone mineral content of thoracic vertebrae by bone scan (Example 4); type: in vivo, human
Procedure: Seven adults from Example 3 agreed to receive a daily dosage of L-carnitine of 2 g/day, self-administered orally, for three months. Doses were administered four times daily, and each dose consisted of two 250 mg tablets. Of the seven individuals, two individuals dropped out of the study due to unrelated illness; thus, five remained in the study to completion. The following were evaluated by pretreatment and posttreatment comparisons: serum carnitine and serum IGF-1 by known methods, and bone mineral contents by bone scan of thoracic region, i.e., thoracic vertebrae, on a NORLAND scanner.

[2] = Serum carnitine at 12 weeks in adult mice fed L-carnitine, acetyl carnitine or γ-butyrobetaine; parameters: species or system mouse (BALB/c male); conditions: mouse, in vivo, po, Serum carnitine
Procedure: (§1) The present invention is further explained by the following examples which should not be construed by way of limiting the scope of the present invention. In the following examples, serum carnitine levels were determined by the method of R. Parvin et al., Anal. Biochem., vol. 79 (1979) pp. 190-201. Serum IGF-1 concentrations were measured by immunoradiometric assay, for example, by IRMA Kit available from Diagnostic Systems Laboratories, Inc., Webster, Texas. Serum osteocalcin levels were measured according to the method of Grunaberg et al., Meth. Enzymology, vol 107 (1984) 516, and which is embodied in an osteocalcin kit available from Biomedical Technologies, Inc., Stoughton, Mass. All mice used in the animal studies were BALB/c strain which is commercially available.
Tests were performed to compare the effects on serum osteocalcin of diet supplementation with L-carnitine, its precursor, γ-butyrobetaine (available from Aldrich Chemical Co.) and one of its metabolites, acetylcarnitine (available from Life Science Resources, Milwaukee, Wis. 53223). Twenty adult mice, i.e., three months of age, (BALB/c male mice) were divided into seven groups. Each of the groups was fed diets as indicated hereinbelow for twelve weeks. One group (n=3) was fed a diet with L-carnitine supplementation at a dose of 50 mg/kg of body weight each day, while the second group (n=3) was fed L-carnitine at a daily dose of about 100 mg/kg. The third group (n=2) was fed a diet with acetylcarnitine supplementation at a daily dose of 50 mg/kg, while the fourth group (n=3) was fed a daily dose of 100 mg/kg of this compound. The fifth group (n=2) was fed a daily dose of 50 mg/kg of γ-butyrobetaine supplementation,while the sixth group was fed a daily dose of 100 mg/kg of γ-butyrobetaine. The seventh group (n=4) was fed normal, unsupplemented feed (control). Mouse blood was sampled prior to beginning of the trial (pretreatment), at six weeks, and at the end of the trial (twelve weeks). The samples were evaluated for serum osteocalcin levels at six and twelve weeks. Total carnitine was determined at twelve weeks.

serum osteocalcin = assay: Osteocalcin response to L-carnitine in aged mice; type: in vivo, mouse (BALB/c)
Procedure: as §1
Forty aged mice were separated into two groups. After an initial acclimatizing period of one week, one group was fed a diet with L-carnitine supplementation for six weeks and the other was fed normal, unsupplemented feed (control). […] The average daily food for each mouse was determined by weighing the food initially placed in the food bin and weighing the remaining food. […] Mouse blood was sampled prior to beginning of the trial (pretreatment), at the end of three weeks, and at six weeks (posttreatment), and was evaluated for serum osteocalcin and carnitine levels.

serum carnitine = assay: Serum carnitine after oral L-carnitine, double-blind study in patients over 60 (Example 5); type: in vivo, human; conditions: individual subjects 010-019, 2 g/day oral
Procedure: as §1
(§2) Nineteen patients (over age 60) were enrolled in a preliminary double-blindstudy to establish the effect of oral L-carnitine treatment on serum IGF-1 and osteocalcin levels. Baseline, i.e., pretreatment, levels of serum IGF-1, osteocalcin and carnitine were measured by known methods. The patients were divided into two groups, control (n=9; subjects 001-009 in Table 5 below) and treatment (n=10; subjects 010-019 in Table 5 below). The treatment group received a daily dosage of 2 g of L-carnitine orally, self-administered, in four separate doses of two 250 mg tablets taken four times per day, for twelve weeks. The control group were given placebo, e.g., simple sugar. Serum samples were drawn every four weeks, and serum carnitine, IGF-1 and osteocalcin were determined.

[3] = as above; type: in vivo, human; conditions: human, serum, po, 2 g/day
Procedure: as §1, §2

## C[N+](C)(C)C[C@H](O)CC(=O)[O-] [L-carnitine]
[1]; all patients, after treatment
  bone mineral content of the thoracic vertebral region: all patients demonstrated an increase in bone mineral content of the thoracic vertebral region
[1]; individual subjects, 2 g/day oral, three months
  Bone mineral content, post treatment: 427.0 g and 1118.4 g and 986.1 g and 736.2 g and 887.7 g
[1]; individual subjects, post vs pre treatment, 2 g/day oral, three months
  Bone mineral content, change: +3.85% and +1.39% and +5.69% and +0.72% and +7.35%
[2]; 50 mg/kg/day, Free
  concentration at 2016 h: 52.1 µM
[2]; 50 mg/kg/day, Total
  concentration at 2016 h: 66 µM
[2]; 100 mg/kg/day, Free
  concentration at 2016 h: 41.6 µM
[2]; 100 mg/kg/day, Total
  concentration at 2016 h: 59.5 µM
Serum osteocalcin; aged mice (18 months), 50 mg/kg/day oral in feed, six weeks
  Osteocalcin: 29.6 ± 3.6 ng/mL
Serum osteocalcin; aged mice, 50 mg/kg/day
  significance of difference in osteocalcin, treated vs control (p, student's t test): ≤ 0.05
Serum carnitine; 4 weeks, 40320 min, read-out: Serum carnitine, Free
  concentration: 54.4 µM and 61.6 µM and 36.6 µM and 66.6 µM and 67.4 µM and 52 µM and 67.2 µM and 40.4 µM and 61.2 µM and 85 µM
Serum carnitine; 4 weeks, 40320 min, read-out: Serum carnitine, Total
  concentration: 71.6 µM and 72.5 µM and 52.4 µM and 80.3 µM and 120 µM and 67 µM and 84.4 µM and 54.3 µM and 73 µM and 108 µM
Serum carnitine; 8 weeks, 80640 min, read-out: Serum carnitine, Free
  concentration: 58.6 µM and 52.6 µM and 65.2 µM and 74.6 µM and 57 µM and 67.4 µM and 39.4 µM and 61.2 µM
Serum carnitine; 8 weeks, 80640 min, read-out: Serum carnitine, Total
  concentration: 76.6 µM and 64.8 µM and 72.5 µM and 91.7 µM and 67.9 µM and 83.4 µM and 51.5 µM and 83.9 µM
Serum carnitine; 12 weeks, 120960 min, read-out: Serum carnitine, Free
  concentration: 61 µM and 49.6 µM and 70 µM and 55.8 µM and 69.6 µM
Serum carnitine; 12 weeks, 120960 min, read-out: Serum carnitine, Total
  concentration: 79.3 µM and 62 µM and 75.7 µM and 70.2 µM and 94.4 µM
[3]; individual subjects 010-019, 2 g/day oral, 8 weeks, read-out: Serum carnitine, Free
  concentration at 1344 h: 65.4 µM
[3]; individual subjects 010-019, 2 g/day oral, 8 weeks, read-out: Serum carnitine, Total
  concentration at 1344 h: 88 µM
[3]; individual subjects 010-019, 2 g/day oral, 12 weeks, read-out: Serum carnitine, Free
  concentration at 2016 h: 72.6 µM
[3]; individual subjects 010-019, 2 g/day oral, 12 weeks, read-out: Serum carnitine, Total
  concentration at 2016 h: 101 µM
[3]; treatment group average, eight weeks, read-out: average total carnitine
  concentration at 1344 h: 75.6 µM
[3]; treatment group average, four weeks, read-out: average total carnitine
  concentration at 672 h: 78.4 µM
[3]; treatment group average, twelve weeks, read-out: average total carnitine
  concentration at 2016 h: 81.5 µM
